# Measured values as given in patent US11007183B2, “Cancer treatments using combinations of PI3K/Akt pathway and ERK inhibitors” (BIOMED VALLEY DISCOVERIES, INC., priority 2013, dated 2021).
# Key:
# [1] = tested on: HCT116 PIK3CA (+/−) cells; assay: Combination proliferation assay (Loewe/Bliss); type: cell-based, human; details: 2.5% serum
# Method: Test compounds were incubated with the cells for 72 h at 37° C., 5% CO2 in a humidified atmosphere. CellTiter-Glo® reagent (Promega, Madison, Wis.) was added according to manufacturer's instructions and luminescence detected using the BMG FLUOstar plate reader (BMG Labtech, Ortenberg, Germany). The average media only background value was deducted and the data analysed. For the 10×8 combination assays the combination interactions across the dose matrix were determined by the Loewe Additivity and Bliss independence models using ChaliceTM Combination Analysis Software (Horizon Discovery Group, Cambridge, Mass.) as outlined in the user manual (available at chalice.horizondiscovery.com/chalice-portal/documentation/analyzer/home.jsp). Synergy is determined by comparing the experimentally observed level of inhibition at each combination point with the value expected for additivity, which is derived from the single-agent responses along the edges of the matrix. Potential synergistic interactions were identified by displaying the calculated excess inhibition over that predicted as being additive across the dose matrix as a heat map, and by reporting a quantitative 'Synergy Score' based on the Loewe model. The single agent data derived from the combination assay plates were presented as dose-response curves generated in GraphPad Prism (GraphPad Software, La Jolla, Calif.) (plotted using percentage viability relative to DMSO only treated controls). […] (Cbliss is the fractional inhibition that would be expected if the combination of the two drugs were exactly additive). Cbliss values were then subtracted from the experimentally observed fractional inhibition values to give an 'excess over Bliss' value which were plotted as heat maps±SD.
# [2] = tested on: MAPK signaling in HCT-116 cells; assay: Western blot of MAPK signaling markers; type: cell-based, human; details: HCT116 KRAS mutant cell line, 4 hours, micromolar concentrations
# Method: For Western blot studies, HCT116 cells (5×10^6) were seeded into 10 cm dishes in McCoy's 5A plus 10% FBS. A375 cells (2.5×10^6) were seeded into 10 cm dishes in DMEM plus 10% FBS. Cells were allowed to adhere overnight prior to addition of the indicated amount of test compound (BVD-523) or vehicle control. Cells were treated for either 4 or 24 hours before isolation of whole-cell protein lysates, as specified below. Cells were harvested by trypsinisation, pelleted and snap frozen. Lysates were prepared with RIPA (Radio-Immunoprecipitation Assay) buffer, clarified by centrifugation and quantitated by bicinchoninic acid assay (BCA) assay. 20-50 μg of protein was resolved by SDS-PAGE electrophoresis, blotted onto PVDF membrane and probed using the antibodies detailed in Table 9 (for the 4-hour treatment) and Table 10 (for the 24-hour treatment) below.
smiles,measurement,setting,value
CC(C)Nc1cc(-c2c[nH]c(C(=O)N[C@H](CO)c3cccc(Cl)c3)c2)c(Cl)cn1 [BVD-523],Single agent sensitivity relative to the parental line,[1]; HCT116 line lacking the PIK3CA mutation vs parental,more sensitive
same,IC50,"[1]; Homo sapiens, HCT-116, HCT116 PIK3CA (+/−), mean of n=4 separate combinations, read-out: IC50 (single agent, derived from combination assay plates)",40 nM
same,Phosphorylation of ERK-dependent residues (T359/S363) in RSK 1 and 2,[2],reduced
